Source: paper PMC2974656, “Selective killing of human immunodeficiency virus infected cells by non-nucleoside reverse transcriptase inhibitor-induced activation of HIV protease” (Retrovirology, 2010)

Experiments:
[1] = test system: HIV-1IIIB; assay: Direct antiviral activity: MT4-LTR-EGFP cells infected with HIV-1IIIB, EGFP fluorescence; format: cell-based; details: MT4-LTR-EGFP cells, HIV-1IIIB MOI 0.01, 3 days; mean ± SD of three or more measurements; read-out: Inhibition of HIV replication in vitro EC50
Description: After 3 days of incubation, infected cells were quantified by determination of total EGFP fluorescence per well based on microscopy and subsequent image analysis. Threshold values were determined from the average pixel value plus 6 standard deviations from the uninfected control wells, and the median threshold from all control wells on a plate was defined as baseline GFP expression. Intensity values for the sample wells were then determined by subtracting the background threshold from each pixel value obtained from the image of the respective well and calculating the sum of net pixel intensities. Percent inhibition was calculated as 100 * (1 - (Sample - CC)/(VC - CC)).

[2] = test system: MT4-LTR-EGFP-IIIB HIV-1 producing cells; assay: in vitro; format: cell-based
Description: The cytotoxicity of inhibitors was determined in parallel on MT4-CMV-EGFP control cells and on MT4-LTR-EGFP-IIIB virus producing cells, respectively.

[3] = test system: MT4-LTR-EGFP parental cells; details: 1 μM, 6 days, trypan blue
Text: In MT4-LTR-EGFP-IIIB cells, HIV expression could additionally be detected through long terminal repeat (LTR) driven expression of the gfp marker gene. As a control we used uninfected MT-4 cells or MT4-CMV-EGFP cells, constitutively expressing EGFP from a CMV promoter, respectively.
Cell lysates were harvested and analyzed by immunoblot using antiserum raised against HIV-1 CA. Positions of Gag and Gag-Pol processing products are marked at the right, molecular mass standards are indicated to the left (in kDa). […] Live cells were counted after trypan blue staining. Data represent mean values and standard deviations from three parallel cultures.

[4] = test system: HIV-1AGFP infected PBMC; assay: Killing of HIV-1 infected PBMC, proportion of GFP expressing cells by flow cytometry; format: cell-based, human; details: 1 μM NNRTI, added day 2 post infection with AMD-3100, 5 days
Description: PBMC isolated from healthy blood donors were activated and infected with a replication competent HIV-1 derivative which carries a gfp gene in the nef locus [49]. The co-receptor antagonist AMD-3100 was added at day 2 post infection to prevent further viral spread.

[5] = test system: HXB2D-EGFP infected CD4 positive cells isolated from PBMC; assay: Killing of HIV-1 infected CD4 positive primary T-cells, flow cytometry; format: cell-based, human; details: 1 μM NNRTI + 1 μM AZT, 3 days
Description: To validate our results obtained for the persistently infected cell line in a more relevant cell system we performed additional infection experiments using human peripheral blood mononuclear cells (PBMC). […]. PBMC isolated from healthy blood donors were activated and infected with a replication competent HIV-1 derivative which carries a gfp gene in the nef locus. The co-receptor antagonist AMD-3100 was added at day 2 post infection to prevent further viral spread. This was done to distinguish the proposed killing of infected cells from the inhibitory effect of NNRTIs and PIs on virus replication. […]. […] Similar results were obtained upon infection of CD4-positive primary T-cells with an EGFP-expressing virus (Figure 4B).
Figure 4 NNRTI induced selective killing of HIV-1 infected primary human cells. (A) PBMC prepared from buffy coats of healthy blood donors were infected with HIV-1AGFP. At day 2 post infection, 100 ng/ml AMD-3100 was added to all samples to prevent further infection. […] After further incubation for 5 days, cells were harvested and analyzed for the proportion of infected GFP expressing cells by flow cytometry. […] P-values were calculated using a two-tailed unpaired t-test (GraphPad Prism). Values were normalized to the respective solvent control. (B) CD4 positive cells isolated from PBMC were infected with HXB2D-EGFP. […] After further incubation for 3 days, cells were harvested and analyzed for the proportion of infected cells by flow cytometry. […] Asterisks: non-infected controls.
Peripheral blood mononuclear cells (PBMC) were purified from buffy coats of HIV-negative blood donors, grown in supplemented RPMI 1640 and stimulated by the addition of 10 ng/ml IL-2 (Biomol) and 2 μg/ml PHA (Sigma). PBMC pooled from two donors each were used for infection. […] For infection of PBMC, the HIV-1 derivatives HIV-1-AGFP [49] carrying the gfp gene fused to the codon for amino acid 16 of Nef in pNL4-3, or HXB2D-EGFP [60], which carries an egfp gene in the place of the viral nef open reading frame, were used as indicated. […]

NS(=O)(=O)c1ccc(NC(=O)CSc2nnc(Br)n2-c2ccc(C3CC3)c3ccccc23)c(Cl)c1 [VRX-480773]
EC50 [1]: 1.6 ± 0.81 nM | CC50 ([2]; 4 days, no DRV, mean ± SD, tested up to 10 μM, read-out: Cytotoxicity on MT4-LTR-EGFP-IIIB HIV-1 producing cells CC50): 680 ± 340 nM | Cytotoxicity on MT4-LTR-EGFP-IIIB cells, in words ([2]; summary of Table 1): submicromolar range | Number of uninfected control cells [3]: remained constant | Infected primary cells (PBMC) as compared with the control [4]: significant reduction | Cytotoxicity on infected CD4-positive primary T-cells [5]: PR dependent cytotoxicity
